Test system: GAL4UAS responsive luciferase reporter Hela stable cell line
Assay: GAL4UAS responsive luciferase reporter assay
Type: cell-based
Details: for reduction of luciferase activity by Tau4R overexpression: wild-type Tau4R transfected
Protocol: (A) Representative confocal sections of MCF7shctrl and shTau cells untreated or treated with 100 nM TSA for 24 h. […] (B) Quantification of HP1α clusters per nuclei visualized as described previously and realized on three independent experiments. (C) GADD45a and (D) p21 (CDKN1a) expression in MCF7shctrl and shTau cells untreated or treated with 100 nM TSA for 24 h were analyzed by real-time PCR and normalized to RPLO. Results are expressed, relative to the basal activity set to 1, as the mean±SD of three independent assays. (E) Tau tethering prevents adjacent reporter gene activity induced by TSA. GAL4UAS responsive luciferase reporter Hela stable cell line was transfected with GAL4DBD (GAL4) or GAL4DBD-Tau4R and then, 24 h later, treated with TSA (600 nM) for 24 h. The luciferase activity was determined as described in the Materials and Methods. (F) Ectopic Tau4R expression prevents adjacent reporter gene activity induced by TSA. The GAL4UAS responsive luciferase reporter Hela stable cell line was transfected with a plasmid encoding Tau4R for 24 h. Then, cells were treated with an increasing concentration of TSA, as indicated for 24 h. The luciferase activity was determined as described in the Materials and Methods. Data are mean±SD **P<0.01***P<0.001 vs. control.
SH-SY5Y human neuroblastoma cells expressing Tau4R tagged with the streptavidin-binding peptide (SBP) (referred as SH-SY5Y-(SBP)Tau4R) (Chauderlier et al., 2018), SH-SY5Y-Tet-on-Tau4R, Hela cells, MCF7 and MDA-MB-231 were cultured in Dulbecco's Modified Eagle's Medium with 10% fetal bovine serum, 2 mM L-glutamine and 50 U/ml penicillin/streptomycin (Gibco) at 37° C. in 5% CO2 humidified air. Transient and stable transfections experiments were performed using the lipofectamine 3000 reagent (Invitrogen). Transient luciferase assays were performed with the dual-luciferase assay system (Promega). For stable clones, luciferase activities were measured using the luciferase assay system (Promega) and normalized against protein concentration. To isolate stably transfected clones, Hela cells were transfected with the pGL4.31[luc2P/GAL4 UAS/Hygro](referred to as the GAL4UAS stable Hela cell line) and selected with hygromycin (200 μg/ml). Of 6 clones tested for reporter activity, one clone was chosen for further studies. MCF7 and MDA-MB-231 cells were transfected with short hairpin Tau or RNA Ctrl vectors and selected with puromycin ([…]). Clones were isolated and tested for Tau expression.
To directly probe how Tau prevents TSA-induced chromatin remodeling and gene expression, we next used Hela cells as they lack endogenous Tau. First, we generated a stable GAL4UAS-responsive luciferase reporter Hela clone that we subsequently selected for trichostatin-induced luciferase activity. In our preliminary experiments we found the lowest dose of TSA inducing maximal luciferase activity was 600 nM and we used this concentration in the following experiments. In addition, by performing salt extraction on nuclei, we found only Tau4R isoforms were tightly bound to chromatin and could potentially impact directly on chromatin structure (data not shown). We therefore targeted Tau4R to UAS responsive elements by fusing Tau4R to the heterologous DNA-binding domain GAL4 and transfected this plasmid into Hela stable clone. […] We next wondered if this effect was due to the tethering of Tau4R to the promoter or whether this was independent of Tau4R fusion to GAL4. […]

For `CC(/C=C/C(=O)NO)=C\[C@@H](C)C(=O)c1ccc(N(C)C)cc1` [TSA, 2,4-Heptadienamide, 7-[4-(dimethylamino)phenyl]-N-hydroxy-4,6-dimethyl-7-oxo-, (2E,4E,6R)-], the “reduction of luciferase activity by Tau4R overexpression” value (shortened to “reduction of luciferase activity”) (100 nM TSA, 24 h) was “around 50%”, the “reduction of luciferase activity” value (300 nM TSA, 24 h) was “around 50%” and the “reduction of luciferase activity” value (600 nM TSA, 24 h) was “no reduction”. For the same compound, the “reduction of TSA-induced luciferase activity in the presence of GAL-Tau4R” value (TSA 600 nM, 24 h, GAL4DBD-Tau4R transfected) was 50% and the “lowest dose of TSA inducing maximal luciferase activity” value (preliminary experiments, Hela stable clone) was 600 nM.
